# Source: US6384029B1, “Optically active pyridyl-4h-1,2,4-oxdadiazine derivative and its use in the treatment of vascular diseases” (Biorex Kutató Fejlesztö RT., priority 1998, dated 2002)
# Marks after values point to notes of the source that are not given here.
# Key:
# [1] = test system: coronary flow responses to serotonin (5-HT) in hearts from spontaneously hypertensive (SH) rats; experiment: Langendorff perfused rat heart: endothelial function before and after ischemia; settings: for postischemic coronary response in percentage of the preischemic vasodilator response: 10^−6 M drug in perfusate, 10^−7 M 5-HT, 10 min global ischemia, SH rat heart
# Experimental: Langendorff Perfused Rat Heart
# Protocol for Assesment of Endothelial Function Before and After Ischemia
# Rats were heparinised with i.p. heparin sodium (2500 IU) and anesthetized with i.p. pentobarbital (60 mg/kg). Hearts from spontaneously hypertensive (SH) rats were quickly removed and immediately perfused via the aorta using a gravity-flow, non-recirculating Langendorff apparatus (Experimetria Ltd) at a constant perfusion pressure (100 cm H2O) with Krebs-Henseleit Solution (KHS) containing in mM: NaCl 120; KCl 5.4; CaCl2 2.7; MgCl2 1.1; NaHCO3 24; D-glucose 11. The KHS was gassed with carbogen (95% O2; 5% CO2) resulting pH 7.4.
# We used the so-called non-working heart model and measured the mean coronary flow by a transonic flow meter (Type T206, Transonic Systems Inc.). The flow probe was placed above the aortic cannula. Coronary flow was monitored throughout the experiment and registered by a potentiometric recorder. Hearts were allowed to beat spontaneously throughout the experiment. After 20-30 min of equilibration period the coronary flow reached a baseline value.
# Endothelial function was assessed through observations of preischemic and postischemic coronary flow responses to serotonin (5-HT). In response to serotonin, the progress of dilatation of coronary artery depends on the soundness of the endothelium.
# The Langendorff infusion was switched to the another column containing additional 10^−7 M serotonin (5-HT, Sigma Chemical Co.). The ensuing dilatation of coronary artery was monitored and when the steady state had been reached the 5-HT was washed out by switching back to the ordinary KHS. The heart was then subjected to a global ischemia for 10 min by the clamping the aortic cannula. At the end of the ischemic period, the heart was reperfused. When the baseline coronary flow had been reestablished, the heart was again subjected to the same protocol of sequential infusion of 5-HT and KHS as in the preischemic period. Control hearts were perfused with pure KHS and the hearts of the another three groups were perfused with KHS containing additional 10^−6 M racemic 5,6-dihydro-5-(1-piperidinyl)-methyl-3-(3-pyridyl)4H-1,2,4-oxadiazine, (−)-5,6-dihydro-5-(1-piperidinyl)-methyl-3-(3-pyridyl)4H-1,2,4-oxadiazine and (+)-5,6-dihydro-5-(1-piperidinyl)-methyl-3-(3-pyridyl)4H-1,2,4-oxadiazine, respectively. 20-30 min after the onset of hemodynamic stability, perfusion of the drugs were initiated and continued until reperfusion with the exception of the occlusion period.
# The potischemic coronary responses are expressed in percentage of the preischemic vasodilator responses.
# rabbit papillary muscle = experiment: Contractile force of heart: rabbit right ventricular papillary muscle; settings: for amplitude % (contractile force, % of control): cumulative addition, 15-20 min incubation; for inotropic effect (in words): between 10^−6 and 10^−4 molar range
# Description: Effect of racemic 5,6-dihydro-5-(1-piperidinyl)-methyl-3-(3-pyridyl)4H-1,2,4-oxadiazine and its (−) and (+) enantiomers on the contractile force of heart
# New Zealand white rabbits (male, 2-3 kg) were killed by a blow on the nape. The hearts were rapidly removed after opening the chest. Right ventricular papillary muscles were dissected and mounted in organ holding chambers and pre-tension of 0.5 g was applied. The superfusate contained (in mM) 120 NaCl, 5.4 KCl, 2.7 CaCl2, 1.1 MgCl2, 1.1 NaH2PO4, 24.0 NaHCO3 and 11.0 glucose. The pH of this superfusate was 7.4 at 37° C. when gassed with 95% O2 and 5% CO2. Stimulation and measurements were carried out by Isosys System of Experimetria, Budapest, Hungary. The preparations were paced by 1-ms-wide isolated constant voltage at a cycle length of 1000 ms. The amplitudes of the pulses were equal to twice as high as the diastolic threshold value, delivered through a pair of platinum electrodes. Before the start of the measurements the preparation was equilibrated for 60 min to allow the stabilization of its mechanical parameters. The drugs were added to the organ bath cumulatively, without washing out. Period of the incubation was 15-20 min. Measured parameters were: resting force (mg) and changes in the amplitude of contractile force (mg) which was expressed in % of the control.
# [2] = test system: spontaneously hypertensive rats; experiment: Myocardial infarction in spontaneously hypertensive rats (coronary occlusion/reperfusion); type: in vivo, rat; settings: SH rats; for Survival (%) / Infarcted area (%): oral 6 hours before occlusion (100 mg/kg), 1 h occlusion, 1 h reperfusion; for Infarcted area (%): percentage of left ventricle
# Experimental: Myocardial Infarction in Spontaneously Hypertensive Rats
# Myocardial ischemia was induced by a temporary occlusion of the main left coronary artery, according to Griswold et al (J. Pharmacol. Methods 1988, 20: 225-235). SH rats were anaesthetized with sodium pentobarbital (60 mg/kg i.p.). After tracheotomy, the animals were ventilated with room air by a respirator for small rodents (model: Harvard 552), with a stroke volume of 1,5-2 ml/100 g and a rate of 55 strokes/min to maintain normal pO2, pCO2 and pH parameters. The right carotid artery was catheterized and connected to a pressure transducer (P236B Stetham) for the measurement of systemic arterial blood pressure (BP) by means of a preamplifier (Hg-O2D Experimetria®). Heart rate (HR) was measured by a cardiotachometer (HR-01, Experimetria®). The electrocardiogram (ECG standard lead III) was recorded on a devices recorder (ER- 14, Micromed®) by means of subcutaneous steel needle electrodes. The chest was opened by a left thoracotomy and the heart was exteriorized by a gentle pressure on the right side of the rib cage. A 4/0 silk ligature was quickly placed under the main left coronary artery. The heart was replaced in the chest and the animal left to recover. Rectal temperature was monitored and was maintained constant at 37° C. The experiment was initiated with a 15 min stabilization period during which the observation of a sustained blood pressure less than 70 mmHg and/or the occurrence of arrhythmias lead to exclusion. Myocardial ischemia was induced with coronary artery occlusion for 1 h and reperfusion allowed for 1 hour. The drugs were administered orally 6 hours before occlusion.
# Quantification of Myocardial Infarction
# At the end of experiment, the heart was quickly removed. The left ventricle was then sliced into 2 mm thick sections parallel to the atrioventricular groove. The slices were incubated in a 0.1% solution of p-Nitroblue Tetrazolium (NBT) grade III, pH 7,4 for 15 min. The non-infarcted area was colored blue due to formation of a precipitate that results from reaction of NBT with dehydrogenase enzymes. Loss of these enzymes in the infarcted myocardium prevents the formation of the precipitate; thus, the infarcted area within the risk region remains pale yellow. The necrotic area was determined using computerized image analysis (COLIM, Pictron Kft), and was expressed as a percentage of the left ventricle.
# [3] = acute single oral 100 mg/kg 6 hours before occlusion
Structure (SMILES),postischemic coronary response in percentage of the preischemic vasodilator response [1] [%],"amplitude % (contractile force, % of control) (rabbit papillary muscle; 10^−4 M) [%]","amplitude % (contractile force, % of control) (rabbit papillary muscle; 10^−5 M) [%]","amplitude % (contractile force, % of control) (rabbit papillary muscle; 10^−6 M) [%]",inotropic effect (in words) (rabbit papillary muscle),Survival (%) [2],Infarcted area (%) [2] [%],"endothelial function after ischemia (in words) ([1]; 10^−6 M, 10 min of global ischemia)","myocardial infarct size (in words) [2, 3]","survival rate (in words) [2, 3]"
"c1cncc(C2=NOCC(CN3CCCCC3)N2)c1 (racemic) [racemic compound, 5,6-dihydro-5-(1-piperidinyl)-methyl-3-(3-pyridyl)4H-1,2,4-oxadiazine, reference compound]",63.08 ± 11.7,83.7 ± 3.3,87.1 ± 3.5,92.6 ± 5.08,negative inotropic effect,70.0%,27.2 ± 5.8,–,–,–
"c1cncc(C2=NOCC(CN3CCCCC3)N2)c1 (single isomer, unassigned; (+)) [(+) enantiomer, (+)-5,6-dihydro-5-(1-piperidinyl)-methyl-3-(3-pyridyl)4H-1,2,4-oxadiazine]",49.78 ± 9.9,78.4 ± 5.0,79.5 ± 5.6,90.1 ± 3.5,negative inotropic effect,75.0%,34.5 ± 4.6,–,–,–
"c1cncc(C2=NOCC(CN3CCCCC3)N2)c1 (single isomer, unassigned; (-)) [(−) enantiomer, (−)-5,6-dihydro-5-(1-piperidinyl)-methyl-3-(3-pyridyl)4H-1,2,4-oxadiazine]",88.41 ± 10.9,142.5 ± 4.8,132.8 ± 5.0,126.6 ± 5.3,positive inotropic effect,100.0** %,7.1 ± 2.5,preserved endothelial function,significantly reduced myocardial infarct size,increased survival rate
